Assay results from patent US8853228B2, “Heterocyclic analogs of propargyl-linked inhibitors of dihydrofolate reductase” (University of Connecticut, priority 2011, dated 2014).
≈ marks a conversion by molar mass, not a printed value. Read-outs that look alike come from different tables or passages of the source.

Legend:
MCF-10 cells = assay: Mammalian cell toxicity, MCF-10; type: cell-based, human; details: cytotoxicity
Protocol: (§1) Adherent cell lines were maintained in Eagle's Minimal Essential Media (Sigma-Aldrich, St. Louis, Mo., USA) with 2 mM glutamine and Earle's Balanced Salt Solution (HyClone, Logan, Utah, USA) adjusted to contain 1.5 g/L sodium bicarbonate, 0.1 mM non-essential amino acids, 1 mM sodium pyruvate and 10% fetal calf serum. Fetal calf serum used in these assays was lot matched throughout. […] Toxicity assays were conducted between passages 10-20. Target compound toxicity was measured by incubating the test compound with the cells for 4 h, washing the cells and finally treating the cells with Alamar Blue. After 12-24 h, the fluorescence of the reduced dye was measured. Fluorescence intensity as a function of test compound concentration was fit to the Fermi equation, using non-linear least squares regression analysis, to estimate IC50 values.

HepG2 cells = assay: Mammalian cell toxicity, HepG2; type: cell-based; details: cytotoxicity
Protocol: as §1

hDHFR = hDHFR (Homo sapiens (Human), UniProt P00374); assay: hDHFR enzyme inhibition assay; type: biochemical
Protocol: hDHFR: The gene for hDHFR was amplified using PCR from cDNA obtained from ATCC. The gene was inserted in a pET41 vector with a C-terminal histidine tag for affinity chromatography. The resulting construct was verified by sequencing. The hDHFR protein was expressed in E. coli and purified using a nickel affinity column.
(§2) Enzyme and inhibitor were allowed to incubate for 5 min before adding dihydrofolate to initiate the reaction. Enzyme assays were performed at least four times. IC50 values and their standard deviations were calculated in the presence of varying concentrations of inhibitor near the IC50 concentration.
(§3) Enzyme inhibition assays were performed by monitoring the rate of NADPH oxidation by the DHFR enzyme at an absorbance of 340 nm. Assays were performed in the presence of saturating concentrations of NADPH and initiated with dihydrofolate. All assays were completed at 25° C. in a buffer containing 20 mM TES pH 7.0, 50 mM KCl, 10 mM 2-mercaptoethanol, 0.5 mM EDTA and 1 mg/mL BSA. Inhibition was measured at least three times with inhibitor concentrations near the IC50 value and the average IC50 value is reported with a standard deviation.

Streptococcus pyogenes = assay: Antibacterial MIC, broth microdilution with Alamar Blue; type: cell-based; details: for Selectivity S. pyogenes: IC50 (MCF10)/MIC (pathogen); for MIC S. pyogenes: Table 6
Protocol: (§4) For susceptibility testing, 10 μL of glycerol stock was suspended in a 10 mL shake flask culture of chemically defined Isosensitest broth (Oxoid) supplemented with 2% w/v glucose. A sample of the shake flask culture was diluted to 1×10^6 cells/mL in media and added to 96-well test plates (100 μL per well) containing test compounds dispensed in DMSO (2 μL). After an incubation period (30° C.) determined from the strain specific doubling time, a 0.03% w/v aqueous solution of resazurin (10 μL) was added and the plates were allowed to incubate; each well was then scored for dye reduction.

S. aureus DHFR = S. aureus DHFR (Staphylococcus aureus, UniProt P0A017); type: biochemical; details: for Selectivity (h/Sa): IC50 (human)/IC50 (pathogen); for IC50: average of at least three measurements
Protocol: as §3

S. aureus 13709 (MRSA) = assay: Antibacterial MIC, broth microdilution with Alamar Blue; type: cell-based, Staphylococcus aureus; details: for Selectivity MRSA: IC50 (MCF10)/MIC (pathogen); for MIC MRSA: Table 6
Protocol: as §4

S. pyogenes DHFR = S. pyogenes DHFR (Streptococcus pyogenes, UniProt Q9A091); assay: S. pyogenes DHFR enzyme inhibition assay; type: biochemical; details: for Selectivity (h/Sp): IC50 (human)/IC50 (pathogen); for IC50: average of at least three measurements
Protocol: as §3

C. glabrata = assay: Antifungal assay (MIC, Alamar Blue); type: cell-based, Candida glabrata; details: for MIC (Cg): C. glabrata, YM media; for antifungal MIC C. glabrata: cell growth inhibition (Table 7 conditions)
Protocol: Antifungal assays were performed using C. glabrata as a suspension in 50% glycerol at −78° C. For susceptibility testing, a streak of stock culture was made on SDA agar and grown at 30° C. for 48 h. One pure colony of the test organism was recovered from the plate, suspended in appropriate media and grown in a 5 mL shake flask culture. A sample of the shake flask culture was diluted to 1×10^5 cells/mL in media and added to 96-well test plates (100 μL per well) containing test compounds dispensed in DMSO (1 μL). Amphotericin and ketoconazole were used as controls. After an incubation period determined from the strain specific doubling time, Alamar Blue (10 μL) was added, allowed to incubate; each well was scored for dye reduction.
Several representative compounds were also evaluated in thymidine-depleted media. It has been shown that high levels of thymidine interfere with accurate susceptibility testing of antifolates. To compensate for this, antifolates are frequently evaluated in a controlled minimal media with a low thymidine concentration. […] In addition, the compounds were also evaluated for mammalian cell toxicity using MCF-10 and HepG2 cell lines. Cellular selectivity is reported as the IC50 value for the MCF-10 human cell line divided by the MIC value (μg/mL) (Table 8).

CgDHFR = CgDHFR (Candida glabrata (strain ATCC 2001 / BCRC 20586 / JCM 3761 / NBRC 0622 / NRRL Y-65 / CBS 138) (Yeast) (Nakaseomyces glabratus), UniProt Q6FPH0); assay: biochemical; details: Table 7; read-out: IC50 (CgDHFR)
Text: CgDHFR: The gene coding CgDHFR was amplified by PCR from C. glabrata genomic DNA obtained from ATCC. The gene was inserted in a pET41 vector that includes a C-terminal histidine tag for nickel affinity chromatography. E. coli cells were transformed and the resulting plasmid was verified by sequencing. The protein was expressed in E. coli BL21(DE3) cells with isopropyl β-D-thiogalactoside induction. Following growth, the cells were lysed with BugBuster (Novagen) and centrifuged; the supernatant was loaded on a Ni-NTA column. The column was washed with 20 mM Tris (pH 8.0)/0.4 M NaCl and the protein was eluted using a gradient of 20 mM Tris (pH 8.0), 0.3 M NaCl, 20% glycerol, 0.1 mM EDTA, 2 mM DTT, 250 mM imidazole. Fractions containing CgDHFR were identified by SDS-PAGE, combined and desalted using a PD-10 column with a buffer containing 20 mM Tris pH 8.0, 20% glycerol, 0.1 mM EDTA and 2 mM DTT. The protein was concentrated to 13 mg/mL.
as §2

TgDHFR = TgDHFR (Toxoplasma gondii, UniProt Q07422, DEL43-70); assay: TgDHFR enzyme inhibition assay; type: biochemical
Protocol: These residues were removed, leaving a five residue loop region characteristic of several other species of DHFR.
as §2

ChDHFR-TS = ChDHFR-TS (Cryptosporidium hominis, UniProt Q27552); assay: ChDHFR enzyme inhibition assay; type: biochemical; details: IC50 against ChDHFR
Protocol: as §2
Compounds were evaluated in spectrophotometric enzyme assays using ChDHFR-TS and hDHFR. Inhibition constants (IC50) were measured (see Table 4). […] The compound abbreviations in Table 4 refer to the following compounds: […]

[1] = Table 5, average of at least three measurements, read-out: IC50 human
[2] = Table 7, read-out: IC50 (hDHFR)

Sequence of S. pyogenes DHFR (Q9A091 1-165): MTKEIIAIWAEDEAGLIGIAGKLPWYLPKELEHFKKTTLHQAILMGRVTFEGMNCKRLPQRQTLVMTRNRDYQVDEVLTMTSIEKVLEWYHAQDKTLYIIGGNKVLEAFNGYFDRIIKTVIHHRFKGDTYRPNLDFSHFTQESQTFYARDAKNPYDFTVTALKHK
Sequence of hDHFR (P00374 whole entry): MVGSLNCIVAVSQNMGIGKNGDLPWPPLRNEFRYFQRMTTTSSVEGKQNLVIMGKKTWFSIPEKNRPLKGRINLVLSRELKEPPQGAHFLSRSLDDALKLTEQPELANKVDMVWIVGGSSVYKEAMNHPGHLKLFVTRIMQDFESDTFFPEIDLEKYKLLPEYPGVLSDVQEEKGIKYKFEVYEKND
Sequence of CgDHFR (Q6FPH0 1-217): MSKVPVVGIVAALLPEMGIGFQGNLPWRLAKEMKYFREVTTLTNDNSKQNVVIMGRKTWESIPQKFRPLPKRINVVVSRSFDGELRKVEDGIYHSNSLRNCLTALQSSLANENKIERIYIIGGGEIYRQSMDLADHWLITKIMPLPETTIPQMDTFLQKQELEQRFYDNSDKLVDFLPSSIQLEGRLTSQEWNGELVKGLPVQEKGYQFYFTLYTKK
Sequence of ChDHFR-TS (Q27552 1-521): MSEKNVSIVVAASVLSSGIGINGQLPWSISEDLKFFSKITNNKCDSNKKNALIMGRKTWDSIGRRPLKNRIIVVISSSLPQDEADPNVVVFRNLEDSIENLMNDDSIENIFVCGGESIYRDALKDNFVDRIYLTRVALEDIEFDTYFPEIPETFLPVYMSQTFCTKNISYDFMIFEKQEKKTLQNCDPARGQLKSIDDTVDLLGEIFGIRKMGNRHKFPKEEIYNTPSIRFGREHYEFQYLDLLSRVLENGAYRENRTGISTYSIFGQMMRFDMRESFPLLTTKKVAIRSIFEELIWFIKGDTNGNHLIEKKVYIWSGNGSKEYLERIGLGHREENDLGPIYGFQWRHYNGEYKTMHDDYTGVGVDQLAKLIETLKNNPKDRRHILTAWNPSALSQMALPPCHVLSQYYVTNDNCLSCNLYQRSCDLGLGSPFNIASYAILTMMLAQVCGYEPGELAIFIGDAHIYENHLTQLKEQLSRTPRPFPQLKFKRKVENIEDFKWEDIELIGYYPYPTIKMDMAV
Sequence of TgDHFR (Q07422 71-250, added parts left off, stated change not applied): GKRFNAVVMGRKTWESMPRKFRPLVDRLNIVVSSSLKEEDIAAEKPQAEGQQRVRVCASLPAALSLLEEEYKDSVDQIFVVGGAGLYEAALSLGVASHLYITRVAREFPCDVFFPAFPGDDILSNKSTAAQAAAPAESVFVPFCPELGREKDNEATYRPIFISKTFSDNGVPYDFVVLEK

| Compound | IC50 (MCF-10 cells; Table 6) [nM] | IC50 (HepG2 cells; Table 6) [nM] | IC50 (hDHFR; [1]) [nM] | Selectivity S. pyogenes (Streptococcus pyogenes) | MIC S. pyogenes (Streptococcus pyogenes) [µg/mL] | Selectivity (h/Sa) (S. aureus DHFR) | IC50 (S. aureus DHFR) [nM] | Selectivity MRSA (S. aureus 13709 (MRSA)) | MIC MRSA (S. aureus 13709 (MRSA)) [µg/mL] | Selectivity (h/Sp) (S. pyogenes DHFR) | IC50 (S. pyogenes DHFR) [nM] | MIC (Cg) (C. glabrata) [µg/mL] | antifungal MIC C. glabrata (C. glabrata) [µg/mL] | IC50 (hDHFR; [2]) [nM] | IC50 (CgDHFR) [nM] | IC50 (TgDHFR) [nM] | IC50 (ChDHFR-TS) [nM] | IC50 (MCF-10 cells; Table 8) [nM] | MIC C. glabrata (C. glabrata; IsoSensitest media supplemented with 2% glucose (thymidine-depleted)) [µg/mL] | IC50 (HepG2 cells; Table 8) [nM] |
| --- | --- | --- | --- | --- | --- | --- | --- | --- | --- | --- | --- | --- | --- | --- | --- | --- | --- | --- | --- | --- |
| CCc1nc(N)nc(N)c1C#CCc1cc(OC)cc(-c2ccncc2)c1 [Compound 150] | 409000 | 465000 | 61 ± 5.7 | 10,225 | 0.04 (≈ 0.111 µM) | 5 | 12 ± 2.4 | 9,089 | 0.045 (≈ 0.125 µM) | 2 | 28 ± 4 |  |  |  |  |  |  |  |  |  |
| COc1cc(-c2ccncc2)cc(C(C)C#Cc2c(C)nc(N)nc2N)c1 (stereo not shown) [Compound 147] | 220000 | 233000 | 1500 ± 8 |  | 0.012 (≈ 0.0334 µM) |  | 26 ± 2 |  | 0.09 (≈ 0.25 µM) |  | 160 ± 9 | 1.4 (≈ 3.9 µM) | 1.4 to 1.5 | 1500 ± 83 | 97 ± 9 |  |  |  |  |  |
| CCc1nc(N)nc(N)c1C#CCc1cc(-c2ccncc2)ccc1OC [Compound 149] | 217000 | 199000 | 330 ± 12 | 3,867 | 0.09 (≈ 0.25 µM) | 16 | 21 ± 1 | >20,000 | 0.01 (≈ 0.0278 µM) | 17 | 19 ± 1.3 |  |  |  |  |  |  |  |  |  |
| COc1cc([C@H](C)C#Cc2c(C)nc(N)nc2N)cc(OC)c1OC [138(S), 2,4-Diamino-5-((S)-3-(3,4,5-trimethoxyphenyl)but-1-ynyl)-6-methylpyrimidine] |  |  |  |  |  |  |  |  |  |  |  |  |  |  |  | < 100000 | < 100000 |  |  |  |
| CCc1nc(N)nc(N)c1C#CC(C)c1cc(OC)cc(-c2ccncc2)c1 (stereo not shown) [Compound 148] | 85000 | 171000 | 1300 ± 11 |  | 0.012 (≈ 0.0321 µM) |  | 19 ± 1 |  | 0.09 (≈ 0.241 µM) |  | 180 ± 19 | 1.5 (≈ 4.02 µM) | 1.4 to 1.5 | 1300 ± 11 | 89 ± 8 |  |  | 85000 | 0.36 (≈ 0.964 µM) | 171000 |
| CCc1nc(N)nc(N)c1C#CCc1cccc(-c2cccnc2)c1 [Compound 154] | > 500000 | > 500000 | 290 ± 15 | >20,000 | 0.08 (≈ 0.243 µM) | 9 | 33 ± 0.5 | >20,000 | 0.041 (≈ 0.124 µM) | 6 | 47 ± 4.6 |  |  |  |  |  |  |  |  |  |
| CCc1nc(N)nc(N)c1C#CCc1cccc(-c2ccccc2)c1 [Compound 143] | 32000 |  | 290 ± 36 | 842 | 0.04 (≈ 0.122 µM) | 10 | 28 ± 1.7 | 45 | 0.71 (≈ 2.16 µM) | 11 | 26 ± 1.7 |  |  |  |  |  |  |  |  |  |
